The results in this text go back to ChEMBL document CHEMBL1201862, “PubChem BioAssay data set” (2004).

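Five concentrations, 48 hours, 96-well plates. GI50 is the concentration that inhibits growth by half.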 Activity calls are given as the source filed them. Cut-off read from the data, not from the text of the source: active = GI50 up to about 1.1 µM and inactive = higher. Bounds are passed on as bounds.

Assay in all cases: NCI-60 cell line screen, 48 h
Assay [1] concerns SK-MEL-28.
Assay [2] concerns TK-10.
The test system of assay [3] is EKVX.
The test system of assay [4] is SNB-19.
Assay [5] has as its system SF-295.
Assay [6] deals with SW-620.
Assay [7] has as its system NCI-H23.
For assay [8], the system named is HCC 2998.
The test system of assay [9] is SF-268.
The test system of assay [10] is U-251.
The test system of assay [11] is COLO 205.
Assay [12] deals with RPMI-8226.
Assay [13] relates to HOP-92.
Assay [14] deals with HCT-15.
Assay [15] relates to MOLT-4.
For assay [16], the system named is NCI-H522.

For `CCCCCCc1cc(C(=O)Nc2cccc(C(F)(F)F)c2)nc(N)n1`, the GI50 in [1], in assay [2], in assay [3], in [4], in assay [5] and in assay [6] was > 100 µM (inactive) in each case. In addition, the GI50 in assay [7], in assay [8], in assay [9], in assay [10], in assay [11] and in [12] was > 100 µM (inactive) in each case. In addition, the results for the GI50 in assay [13], in assay [14] and in [15] were > 100 µM (inactive), more than 100 µM and > 100 µM (inactive), respectively.
On to `O=C(Nc1ccccc1-c1nn(CO)c(=S)n(CO)c1=O)C(F)(F)F`, for which the GI50 in assay [1], in assay [2], in [3], in [4], in [5] and in assay [6] was > 100 µM (inactive) throughout. Besides, the GI50 in assay [7], in assay [8], in [9], in assay [10], in assay [11] and in assay [16] was > 100 µM (inactive) each time. Besides, the GI50 in [13] and in assay [15] was > 100 µM (inactive) in each case.
For the compound `N#CC1=C(c2ccccc2)C(O)(c2ccccc2)NC1=O` (stereo unspecified), the GI50 is > 100 µM (inactive) in assay [1]; > 100 µM (inactive) in assay [2]; > 100 µM (inactive) in assay [3]; 37.4 µM (inactive) in [5]; > 100 µM (inactive) in assay [6]; 42 µM (inactive) in assay [7]. Also, the GI50 in assay [8] was > 100 µM (inactive); in [9], > 100 µM (inactive); in [10] it was > 100 µM (inactive); in assay [11], > 100 µM (inactive); in assay [12] it was 75 µM (inactive); in assay [13], 19.5 µM (inactive). The GI50 in assay [14] was more than 100 µM; in [15], > 100 µM (inactive).
On to `Cc1nn(C)cc1P(=S)(c1ccccc1)c1ccccc1`, for which the GI50 in [1] was > 100 µM (inactive); in assay [2] it was > 100 µM (inactive); in assay [3], > 100 µM (inactive); in assay [4], > 100 µM (inactive); in assay [5], 67.5 µM (inactive); in assay [6], 51.9 µM (inactive). The GI50 in assay [7] is > 100 µM (inactive); in assay [8] it was > 100 µM (inactive); in assay [9] it was 81.8 µM (inactive); in assay [10], 92.5 µM (inactive); in [11] it was 48.5 µM (inactive); in assay [12], 28.7 µM (inactive). Also, the GI50 in assay [13] was 35.2 µM (inactive); in assay [14], 32.4 µM; in [15], 30.3 µM (inactive).
Regarding `O=C1C(O)=C(CN(CCCl)CCCl)C(=O)c2ccccc21`, the GI50 in assay [1] was > 100 µM (inactive); in [2], > 100 µM (inactive); in assay [3] it was > 100 µM (inactive); in assay [4] it was 50 µM (inactive); in assay [5], 70.3 µM (inactive); in assay [6], 53.2 µM (inactive). Moreover, the GI50 in assay [7] is 68.9 µM (inactive); in assay [8], 97.5 µM (inactive); in assay [9] it was 43.1 µM (inactive); in [10] it was 64.3 µM (inactive); in assay [16] it was 66.8 µM (inactive); in assay [13] it was 56.5 µM (inactive). Also, the GI50 was 31 µM in [14] and 29.3 µM (inactive) in assay [15].
Take `COc1ccc2nc(NC(=O)C(=O)NNC(=O)c3ccncc3)sc2c1`: the GI50 in [1], in assay [2], in [3], in [4], in assay [5] and in assay [6] was > 100 µM (inactive) throughout. Moreover, the GI50 in [7], in assay [8], in [9], in assay [10], in assay [11] and in [16] was > 100 µM (inactive) in each case. For the same compound, the results for the GI50 in assay [13] and in assay [14] were > 100 µM (inactive) and more than 100 µM, respectively.
In the case of `COC(=O)C1=C(c2ccc3c(c2)OCO3)OC(c2ccc3c(c2)OCO3)C1` (stereo unspecified), the GI50 in [1] was > 100 µM (inactive); in assay [2] it was > 100 µM (inactive); in assay [3], > 100 µM (inactive); in assay [5] it was 71.9 µM (inactive); in [6], 67 µM (inactive); in assay [7] it was > 100 µM (inactive). Moreover, the GI50 in assay [8] was > 100 µM (inactive); in [9] it was > 100 µM (inactive); in assay [10] it was 93.8 µM (inactive); in [11], 66.1 µM (inactive); in [12], > 100 µM (inactive); in [13] it was > 100 µM (inactive). Also, the GI50 was more than 100 µM in assay [14] and 16.9 µM (inactive) in assay [15].
On to `O=C1c2ccccc2NC1(c1ccccc1)c1c(-c2ccccc2)[nH]c2ccccc12` (stereo unspecified), for which the GI50 in assay [1] is 37.5 µM (inactive); in assay [3], 35.2 µM (inactive); in [4] it was 37.3 µM (inactive); in [5] it was 6.34 µM (inactive); in [6], 51.9 µM (inactive); in assay [7], 21.4 µM (inactive). Moreover, the GI50 is 36.6 µM (inactive) in assay [8]; 14.4 µM (inactive) in assay [10]; 6.12 µM (inactive) in assay [11]; 3.88 µM (inactive) in assay [12]; 5.35 µM (inactive) in assay [13]; 13.4 µM in [14]. For the same compound, the GI50 in assay [15] is 2.91 µM (inactive).
`c1ccc2c(c1)C1CCCCCC21N1CCOCC1` (stereo unspecified): the GI50 in [1] is > 100 µM (inactive); in assay [2] it was > 100 µM (inactive); in [4], 29.7 µM (inactive); in assay [5] it was > 100 µM (inactive); in [6] it was > 100 µM (inactive); in [7], > 100 µM (inactive). Besides, the GI50 in [8] was > 100 µM (inactive); in assay [9], > 100 µM (inactive); in assay [10], 78.5 µM (inactive); in [11], > 100 µM (inactive); in assay [16], 52.4 µM (inactive); in assay [14], 52 µM. The GI50 in assay [15] was 32.6 µM (inactive).
On to `Cn1c(=O)nc2n(-c3cc(C(F)(F)F)cc(C(F)(F)F)c3)c3ccccc3nc-2c1=O`, for which the GI50 was > 100 µM (inactive) in assay [1]; > 100 µM (inactive) in assay [2]; > 100 µM (inactive) in assay [3]; 49 µM (inactive) in assay [4]; 52.1 µM (inactive) in [5]; > 100 µM (inactive) in assay [6]. Moreover, the GI50 in [7], in assay [8], in assay [9], in assay [10], in assay [11] and in assay [12] was > 100 µM (inactive) in each case. The GI50 in assay [13] was 45.1 µM (inactive); in assay [14], more than 100 µM; in [15], > 100 µM (inactive).
